# Results as given in patent US20260069722A1, “COMPOSITION FOR FLUORESCENT LABELING, FLUORESCENT PROBE, INJECTION AGENT, SYRINGE FILLING, MEDICAL APPARATUS, MEDICAL FIBER MATERIAL, METHOD FOR PRODUCING COMPOSITION FOR FLUORESCENT LABELING, AND METHOD FOR PRODUCING MEDICAL FIBER MATERIAL” (VITA CORPORATION, priority 2022, published 2026).
# Experiment: mixing and kneading of ICG pigment with resin, compression molding
# Assay type: physicochemical
# Details: pigment (ICG in glycerol) 1 to 7 phr kneaded with PP, PVC, LDPE, EVA, TPU at 140 to 170 degrees Celsius
# Experimental: Pigment (ICG plus solvent) was mixed and kneaded with various types of resin, and then it was verified whether or not a sheet could be manufactured by compression molding.
# As the various types of resin, five types were prepared, which include polypropylene (PP), polyvinyl chloride (PVC), low-density polyethylene (LDPE), ethylene-vinyl acetate copolymer resin (EVA), and thermoplastic polyurethane (TPU). As the pigment, viscous liquid was used in which […] 25 mg of ICG were mixed and dissolved with 10 ml of glycerol.
# In addition, four patterns, i.e., 1 phr, 3 phr, 5 phr, and 7 phr of the above pigment were prepared. Note that phr is abbreviation of per hundred resin, which is a unit expressing a ratio of pigment mixed in resin whose weight is 100. For instance, if A g of pigment is in 100 g of resin, the pigment ratio can be said to be A (phr).
# The resin was charged into a mixer that had been preheated, and was kneaded until it was plasticized. As the above mixer, Laboplast mill 4 M150 manufactured by Toyo Seiki Seisaku-sho, Ltd. was used. Note that “Laboplast mill” is a registered trademark of Toyo Seiki Seisaku-sho, Ltd. This step was performed for each resin prepared in advance. Mixing and kneading was performed for five minutes at temperature set for each resin. […]
structure (smiles),measurement,value
"CC1(C)C(/C=C/C=C/C=C/C=C2\N(CCCCS(=O)(=O)[O-])c3ccc4ccccc4c3C2(C)C)=[N+](CCCCS(=O)(=O)[O-])c2ccc3ccccc3c21.[Na+] [ICG, indocyanine green]",thermal degradation due to mixing and kneading,thermal degradation of ICG due to mixing and kneading can be suppressed
